The target in experiment [1] is human alpha1 nicotinic acetylcholine (nACh) receptor (Homo sapiens, UniProt P02708). Description: Nicotinic acetylcholine receptor antagonism assay, IONFlux automated patch clamp (Example 203). Format: cell-based. Particulars: for IC50: antagonism of ACh-stimulated human alpha1 nAChR current, patch clamp; for Emax at 100 µM: maximum percentage antagonism at maximum concentration tested 100 μM. In short, it runs like this: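 Cells expressing human α1 nAChR were incubated with a compound dose response (top 10 μM or 100 μM), then stimulated with ACh (10 mM), and peak current was read by automated patch clamp. % inhibition was taken against ACh-alone control, corrected for vehicle and run-down, and fit non-linearly for IC50; runs were averaged.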
Chain of human alpha1 nicotinic acetylcholine (nACh) receptor (P02708 21-457): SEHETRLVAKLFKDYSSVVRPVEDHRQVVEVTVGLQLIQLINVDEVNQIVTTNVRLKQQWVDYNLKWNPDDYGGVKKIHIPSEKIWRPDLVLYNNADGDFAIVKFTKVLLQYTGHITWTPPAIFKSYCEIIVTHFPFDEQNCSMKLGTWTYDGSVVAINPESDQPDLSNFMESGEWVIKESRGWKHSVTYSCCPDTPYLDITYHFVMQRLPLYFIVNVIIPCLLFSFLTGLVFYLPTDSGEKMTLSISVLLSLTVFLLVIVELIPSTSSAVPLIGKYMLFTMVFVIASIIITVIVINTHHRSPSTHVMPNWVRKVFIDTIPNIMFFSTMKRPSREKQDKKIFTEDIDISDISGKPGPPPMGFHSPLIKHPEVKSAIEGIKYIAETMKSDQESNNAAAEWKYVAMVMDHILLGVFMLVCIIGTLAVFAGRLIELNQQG
Chain of human alpha1 nicotinic acetylcholine (nACh) receptor (P11230 24-501 partner): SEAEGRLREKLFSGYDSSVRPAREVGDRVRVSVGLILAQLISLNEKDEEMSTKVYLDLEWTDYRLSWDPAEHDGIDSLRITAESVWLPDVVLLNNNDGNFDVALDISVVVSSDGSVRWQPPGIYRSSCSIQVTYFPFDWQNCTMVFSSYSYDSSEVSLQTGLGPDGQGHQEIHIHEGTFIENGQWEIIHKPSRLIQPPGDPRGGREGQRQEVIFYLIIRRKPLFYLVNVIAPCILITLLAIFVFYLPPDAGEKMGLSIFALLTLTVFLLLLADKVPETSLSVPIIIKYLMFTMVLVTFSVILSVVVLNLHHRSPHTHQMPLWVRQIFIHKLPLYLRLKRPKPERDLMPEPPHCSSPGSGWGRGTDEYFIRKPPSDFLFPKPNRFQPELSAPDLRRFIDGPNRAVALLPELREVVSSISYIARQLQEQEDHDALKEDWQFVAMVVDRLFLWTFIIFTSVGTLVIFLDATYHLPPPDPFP
Chain of human alpha1 nicotinic acetylcholine (nACh) receptor (Q07001 22-517 partner): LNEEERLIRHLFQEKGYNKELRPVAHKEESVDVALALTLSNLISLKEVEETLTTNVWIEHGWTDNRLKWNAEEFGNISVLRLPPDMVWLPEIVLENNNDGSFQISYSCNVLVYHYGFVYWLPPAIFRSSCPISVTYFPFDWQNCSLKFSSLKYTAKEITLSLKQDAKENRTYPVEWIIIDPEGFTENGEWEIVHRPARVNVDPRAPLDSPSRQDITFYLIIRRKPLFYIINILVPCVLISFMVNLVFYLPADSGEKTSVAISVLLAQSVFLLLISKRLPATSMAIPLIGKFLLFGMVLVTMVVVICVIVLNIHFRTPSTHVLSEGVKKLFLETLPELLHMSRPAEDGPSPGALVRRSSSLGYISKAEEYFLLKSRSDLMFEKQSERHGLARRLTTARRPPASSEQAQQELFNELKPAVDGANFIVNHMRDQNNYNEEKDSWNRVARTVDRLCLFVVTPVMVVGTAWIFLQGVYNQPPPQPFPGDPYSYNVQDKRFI
For orientation: In patch-clamp work, channel activity is measured electrically.

Experiment [2] deals with anti-cotinine antibody (SEQ ID NO: 11/12, rabbit variable region with human IgG1 Fc DE mutation). Description: SPR binding of anti-cotinine antibody to ARM compounds, Biacore T200, 37° C. (Example 202). As to conditions: SPR Biacore T200, 37° C., pH 7.4, antibody SEQ ID NO: 11/12 captured on protein A; Kd in molar. In short, it runs like this:
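Run at 37 °C in 10 mM HEPES pH 7.4, 150 mM NaCl, 0.005% P20, 1% DMSO, with compounds titrated from 200 nM (five 3-fold steps) over protein A–captured antibody. A 1:1 kinetic model on double-referenced data gave rate constants, Kd as koff/kon and residence time 1/koff; results as pKd, run-averaged.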
In general terms: SPR reads the build-up and loss of mass on a sensor chip optically.

Molecule `CC(C)N(C)[C@@H]1CC[C@H](N2CC[C@H](Nc3ncnc4ccc(C(F)(F)F)cc34)C2=O)[C@H](NC(=O)[C@H]2CC[C@H](NC(=O)CCCO[C@H]3CC[C@H](OCCNC(=O)[C@H]4CC(=O)N(C)[C@@H]4c4cccnc4)CC3)CC2)C1` [Example 1, (2S,3S)-N-(2-(((1R,4S)-4-(4-(((1R,4R)-4-(((1R,2S,5R)-5-(Isopropyl(methyl)amino)-2-((S)-2-oxo-3-((6-(trifluoromethyl)quinazolin-4-yl)amino)pyrrolidin-1-yl)cyclohexyl)carbamoyl)cyclohexyl)amino)-4-oxobutoxy)cyclohexyl)oxy)ethyl)-1-methyl-5-oxo-2-(pyridin-3-yl)pyrrolidine-3-carboxamide] showed an IC50 in experiment [1] of 84.6 µM. Besides, the Emax at 100 µM in experiment [1] (read-out: Maximum Response) is 25.6%. For the same molecule, the “pKd of Antibody for ARM Compound of Formula (I)” value (from here on “pKd of Antibody”) in experiment [2] is 9.654.
Taken in the same sequence, the figures for `CC(C)N(C)[C@@H]1CC[C@H](N2CC[C@H](Nc3ncnc4ccc(C(F)(F)F)cc34)C2=O)[C@H](NC(=O)[C@H]2CC[C@@H](NC(=O)CCCO[C@H]3CC[C@H](OCCNC(=O)[C@H]4CC(=O)N(C)[C@@H]4c4cccnc4)CC3)CC2)C1` [Example 5, (2S,3S)-N-(2-(((1R,4S)-4-(4-(((1S,4S)-4-(((1R,2S,5R)-5-(Isopropyl(methyl)amino)-2-((S)-2-oxo-3-((6-(trifluoromethyl)quinazolin-4-yl)amino)pyrrolidin-1-yl)cyclohexyl)carbamoyl)cyclohexyl)amino)-4-oxobutoxy)cyclohexyl)oxy)ethyl)-1-methyl-5-oxo-2-(pyridin-3-yl)pyrrolidine-3-carboxamide] were no less than 100 µM, 40.5% and 9.19.
Taken in the same sequence, the figures for `CC(C)N(C)[C@@H]1CC[C@H](N2CC[C@H](Nc3ncnc4ccc(C(F)(F)F)cc34)C2=O)[C@H](NC(=O)CCOCCNC(=O)CCCO[C@H]2CC[C@H](OCCNC(=O)[C@H]3CC(=O)N(C)[C@@H]3c3cccnc3)CC2)C1` [Example 7, (2S,3S)-N-(2-(((1r,4S)-4-(4-((2-(3-(((1R,2S,5R)-5-(Isopropyl(methyl)amino)-2-((S)-2-oxo-3-((6-(trifluoromethyl)quinazolin-4-yl)amino)pyrrolidin-1-yl)cyclohexyl)amino)-3-oxopropoxy)ethyl)amino)-4-oxobutoxy)cyclohexyl)oxy)ethyl)-1-methyl-5-oxo-2-(pyridin-3-yl)pyrrolidine-3-carboxamide] were 13.7 µM, 95% and 9.2515.
The molecule `CN1C(=O)C[C@H](C(=O)NCCO[C@H]2CC[C@H](OCCCC(=O)N[C@H]3CC[C@H](C(=O)N[C@@H]4C[C@H](NC(C)(C)C)CC[C@@H]4N4CC[C@H](Nc5ncnc6ccc(C(F)(F)F)cc56)C4=O)CC3)CC2)[C@H]1c1cccnc1` [Example 10, (2S,3S)-N-(2-(((1R,4S)-4-(4-(((1R,4R)-4-(((1R,2S,5R)-5-(tert-Butylamino)-2-((S)-2-oxo-3-((6-(trifluoromethyl)quinazolin-4-yl)amino)pyrrolidin-1-yl)cyclohexyl)carbamoyl)cyclohexyl)amino)-4-oxobutoxy)cyclohexyl)oxy)ethyl)-1-methyl-5-oxo-2-(pyridin-3-yl)pyrrolidine-3-carboxamide] yielded an IC50 in experiment [1] of no less than 33.3 µM. In addition, in experiment [1] (maximum percentage antagonism at maximum concentration tested 33.33 μM, read-out: Maximum Response), the Emax at 33.33 µM was 48%. In experiment [2], the “pKd of Antibody” value is 9.199.
In turn, `CC(C)N(C)[C@@H]1CC[C@H](N2CC[C@H](Nc3ncnc4ccc(C(F)(F)F)cc34)C2=O)[C@H](NC(=O)[C@H]2CC[C@@H](NC(=O)CCOCCOCCNC(=O)CCNC(=O)[C@H]3CC(=O)N(C)[C@@H]3c3cccnc3)CC2)C1` [Example 16, (2S,3S)-N-(3-((2-(2-(3-(((1S,4s)-4-(((1R,2S,5R)-5-(Isopropyl(methyl)amino)-2-((S)-2-oxo-3-((6-(trifluoromethyl)quinazolin-4-yl)amino)pyrrolidin-1-yl)cyclohexyl)carbamoyl)cyclohexyl)amino)-3-oxopropoxy)ethoxy)ethyl)amino)-3-oxopropyl)-1-methyl-5-oxo-2-(pyridin-3-yl)pyrrolidine-3-carboxamide] yielded an IC50 in experiment [1] of no less than 100 µM. Further, the Emax at 100 µM in experiment [1] (read-out: Maximum Response) is 47.8%. For the same molecule, the “pKd of Antibody” value in experiment [2] was determined as 9.287.
The matching figures for `CC(C)N(C)[C@@H]1CC[C@H](N2CC[C@H](Nc3ncnc4ccc(C(F)(F)F)cc34)C2=O)[C@H](NC(=O)[C@H]2CC[C@@H](NC(=O)CCCC(=O)NCCCOCCCNC(=O)[C@H]3CC(=O)N(C)[C@@H]3c3cccnc3)CC2)C1` [Example 18, N^1-((1S,4s)-4-(((1R,2S,5R)-5-(Isopropyl(methyl)amino)-2-((S)-2-oxo-3-((6-(trifluoromethyl)quinazolin-4-yl)amino)pyrrolidin-1-yl)cyclohexyl)carbamoyl)cyclohexyl)-N^5-(3-(3-((2S,3S)-1-methyl-5-oxo-2-(pyridin-3-yl)pyrrolidine-3-carboxamido)propoxy)propyl)glutaramide]: no less than 100 µM, 44.9% and 9.0895.
Taken in the same sequence, the figures for `CC(C)N(C)[C@@H]1CC[C@H](N2CC[C@H](Nc3ncnc4ccc(C(F)(F)F)cc34)C2=O)[C@H](NC(=O)[C@H]2CC[C@H](NC(=O)CCCC(=O)NCCCOCCCNC(=O)[C@H]3CC(=O)N(C)[C@@H]3c3cccnc3)CC2)C1` [Example 19, N1-((1R,4r)-4-(((1R,2S,5R)-5-(Isopropyl(methyl)amino)-2-((S)-2-oxo-3-((6-(trifluoromethyl)quinazolin-4-yl)amino)pyrrolidin-1-yl)cyclohexyl)carbamoyl)cyclohexyl)-N5-(3-(3-((2S,3S)-1-methyl-5-oxo-2-(pyridin-3-yl)pyrrolidine-3-carboxamido)propoxy)propyl)glutaramide] were no less than 100 µM, 34.2% and 9.19.
The molecule `CN1C(=O)C[C@H](C(=O)NCCOCCOCCOCCC(=O)N[C@H]2CC[C@@H](C(=O)N[C@@H]3C[C@H](NC(C)(C)C)CC[C@@H]3N3CC[C@H](Nc4ncnc5ccc(C(F)(F)F)cc45)C3=O)CC2)[C@H]1c1cccnc1` [Example 23, (2S,3S)-N-(2-(2-(2-(3-(((1S,4s)-4-(((1R,2S,5R)-5-(tert-Butylamino)-2-((S)-2-oxo-3-((6-(trifluoromethyl)quinazolin-4-yl)amino)pyrrolidin-1-yl)cyclohexyl)carbamoyl)cyclohexyl)amino)-3-oxopropoxy)ethoxy)ethoxy)ethyl)-1-methyl-5-oxo-2-(pyridin-3-yl)pyrrolidine-3-carboxamide] returned an IC50 in experiment [1] of 85.2 µM. For the same molecule, the Emax at 100 µM in experiment [1] (read-out: Maximum Response) was determined as 50.5%. Moreover, the “pKd of Antibody” value in experiment [2] came to 9.2166.
The matching figures for `CC(C)N(C)[C@@H]1CC[C@H](N2CC[C@H](Nc3ncnc4ccc(C(F)(F)F)cc34)C2=O)[C@H](NC(=O)[C@H]2C[C@@H](NC(=O)CCOCCOCCOCCNC(=O)[C@H]3CC(=O)N(C)[C@@H]3c3cccnc3)C2)C1` [Example 24, (2S,3S)-N-(2-(2-(2-(3-(((1S,3s)-3-(((1R,2S,5R)-5-(Isopropyl(methyl)amino)-2-((S)-2-oxo-3-((6-(trifluoromethyl)quinazolin-4-yl)amino)pyrrolidin-1-yl)cyclohexyl)carbamoyl)cyclobutyl)amino)-3-oxopropoxy)ethoxy)ethoxy)ethyl)-1-methyl-5-oxo-2-(pyridin-3-yl)pyrrolidine-3-carboxamide]: 85.3 µM, 59.5% and 9.4425.

By IC50 is commonly meant the concentration that inhibits the measured activity by half. The low end stands for greater potency, the high end for weaker potency.
